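Compound exposure: 48 hours, 5 concentrations, 96-well plates. GI50: concentration for 50% inhibition of growth.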 The source made the active and inactive calls. Cut-off read from the data, not from the text of the source: active = GI50 up to about 1.1 µM and inactive = higher.
Key:
Test in all cases: DTP human tumour cell line panel, 48 h
UO-31 = tested on: UO-31
OVCAR-8 = tested on: OVCAR-8
HCT-15 = tested on: HCT-15
OVCAR-4 = tested on: OVCAR-4
SF-295 = tested on: SF-295
NCI-H522 = tested on: NCI-H522
HOP-92 = tested on: HOP-92
RXF 393 = tested on: RXF 393
SNB-75 = tested on: SNB-75
SR = tested on: SR
SK-MEL-5 = tested on: SK-MEL-5
SK-MEL-2 = tested on: SK-MEL-2
HCT-116 = tested on: HCT-116
SNB-78 = tested on: SNB-78
TK-10 = tested on: TK-10
UACC-62 = tested on: UACC-62
OVCAR-5 = tested on: OVCAR-5
DMS-273 = tested on: DMS-273
M19-MEL = tested on: M19-MEL
MOLT-4 = tested on: MOLT-4
RXF 631 = tested on: RXF 631
CAKI-1 = tested on: CAKI-1
HT-29 = tested on: HT-29
SK-OV-3 = tested on: SK-OV-3
COLO 205 = tested on: COLO 205
HOP-62 = tested on: HOP-62
DMS-114 = tested on: DMS-114
UACC-257 = tested on: UACC-257
SNB-19 = tested on: SNB-19
IGROV-1 = tested on: IGROV-1
SW-620 = tested on: SW-620
RPMI-8226 = tested on: RPMI-8226
SF-268 = tested on: SF-268
M14 = tested on: M14
KM-20L2 = tested on: KM-20L2
HL-60 = tested on: HL-60
K562 = tested on: K562
ACHN = tested on: ACHN
U-251 = tested on: U-251
KM12 = tested on: KM12
A498 = tested on: A498
DLD-1 = tested on: DLD-1
CCRF-CEM = tested on: CCRF-CEM
HOP-18 = tested on: HOP-18
786-0 = tested on: 786-0
LOX IMVI = tested on: LOX IMVI
A549 = tested on: A549
SN12C = tested on: SN12C
Malme-3M = tested on: Malme-3M
LXFL 529 = tested on: LXFL 529
SF-539 = tested on: SF-539
HCC 2998 = tested on: HCC 2998
NCI-H460 = tested on: NCI-H460
OVCAR-3 = tested on: OVCAR-3
NCI-H23 = tested on: NCI-H23
EKVX = tested on: EKVX
SK-MEL-28 = tested on: SK-MEL-28
NCI-H226 = tested on: NCI-H226

CC1(C)CC(=O)c2c(oc3cc(O)c(O)cc23)C1
GI50 (UO-31): 37.7 µM (inactive)
GI50 (OVCAR-8): 19.2 µM (inactive)
GI50 (HCT-15): 25.4 µM
GI50 (OVCAR-4): 19.5 µM (inactive)
GI50 (SF-295): 43.3 µM (inactive)
GI50 (NCI-H522): 11.5 µM (inactive)
GI50 (HOP-92): 36.3 µM (inactive)
GI50 (RXF 393): 29.4 µM (inactive)
GI50 (SNB-75): 32.8 µM (inactive)
GI50 (SR): 18.8 µM (inactive)
GI50 (SK-MEL-5): 17.7 µM (inactive)
GI50 (SK-MEL-2): 26.7 µM (inactive)
GI50 (HCT-116): > 10 µM (inactive)
GI50 (SNB-78): 46.9 µM (inactive)
GI50 (TK-10): > 100 µM (inactive)
GI50 (UACC-62): 17.3 µM (inactive)
GI50 (OVCAR-5): 15.5 µM (inactive)
GI50 (DMS-273): 28.6 µM (inactive)
GI50 (M19-MEL): 35.3 µM (inactive)
GI50 (MOLT-4): 21.3 µM (inactive)
GI50 (RXF 631): 26.3 µM (inactive)
GI50 (CAKI-1): 25.8 µM (inactive)
GI50 (HT-29): 53 µM (inactive)
GI50 (SK-OV-3): > 100 µM (inactive)
GI50 (COLO 205): 36.6 µM (inactive)
GI50 (HOP-62): 41.4 µM (inactive)
GI50 (DMS-114): 13.2 µM (inactive)
GI50 (UACC-257): 30.5 µM (inactive)
GI50 (SNB-19): 82.2 µM (inactive)
GI50 (IGROV-1): 40.2 µM (inactive)
GI50 (SW-620): 19.1 µM (inactive)
GI50 (RPMI-8226): 17.5 µM (inactive)
GI50 (SF-268): 24.3 µM (inactive)
GI50 (M14): 24.2 µM (inactive)
GI50 (KM-20L2): 33.7 µM (inactive)
GI50 (HL-60): 16 µM (inactive)
GI50 (K562): 24.7 µM (inactive)
GI50 (ACHN): 31.3 µM (inactive)
GI50 (U-251): 33 µM (inactive)
GI50 (KM12): 23.9 µM (inactive)
GI50 (A498): 39 µM (inactive)
GI50 (DLD-1): 22.9 µM (inactive)
GI50 (CCRF-CEM): 9.84 µM (inactive)
GI50 (HOP-18): 40.1 µM (inactive)
GI50 (786-0): 26.3 µM (inactive)
GI50 (LOX IMVI): 17.1 µM (inactive)
GI50 (A549): 38 µM (inactive)
GI50 (SN12C): 39.5 µM (inactive)
GI50 (Malme-3M): 32.7 µM (inactive)
GI50 (LXFL 529): 24.7 µM (inactive)
GI50 (SF-539): 28.6 µM (inactive)
GI50 (HCC 2998): 59.4 µM (inactive)
GI50 (NCI-H460): 32 µM (inactive)

CCOC(=O)CNC1C(NC(C)=O)C(OC)OC2COC(c3ccccc3)OC21 (stereo unspecified)
GI50 (UO-31): > 100 µM (inactive)
GI50 (OVCAR-8): > 100 µM (inactive)
GI50 (HCT-15): > 100 µM
GI50 (OVCAR-4): > 100 µM (inactive)
GI50 (SF-295): > 100 µM (inactive)
GI50 (NCI-H522): > 100 µM (inactive)
GI50 (HOP-92): > 100 µM (inactive)
GI50 (RXF 393): > 100 µM (inactive)
GI50 (SNB-75): > 100 µM (inactive)
GI50 (SK-MEL-5): > 100 µM (inactive)
GI50 (OVCAR-3): > 100 µM (inactive)
GI50 (SK-MEL-2): > 100 µM (inactive)
GI50 (HCT-116): > 100 µM (inactive)
GI50 (SNB-78): > 100 µM (inactive)
GI50 (TK-10): > 100 µM (inactive)
GI50 (UACC-62): > 100 µM (inactive)
GI50 (OVCAR-5): > 100 µM (inactive)
GI50 (DMS-273): > 100 µM (inactive)
GI50 (NCI-H23): > 100 µM (inactive)
GI50 (M19-MEL): > 100 µM (inactive)
GI50 (MOLT-4): > 10 µM (inactive)
GI50 (RXF 631): > 100 µM (inactive)
GI50 (CAKI-1): > 100 µM (inactive)
GI50 (HT-29): > 100 µM (inactive)
GI50 (SK-OV-3): > 100 µM (inactive)
GI50 (COLO 205): > 100 µM (inactive)
GI50 (DMS-114): > 100 µM (inactive)
GI50 (UACC-257): > 100 µM (inactive)
GI50 (SNB-19): > 100 µM (inactive)
GI50 (IGROV-1): > 100 µM (inactive)
GI50 (SW-620): > 100 µM (inactive)
GI50 (RPMI-8226): > 100 µM (inactive)
GI50 (SF-268): > 100 µM (inactive)
GI50 (M14): > 100 µM (inactive)
GI50 (KM-20L2): > 100 µM (inactive)
GI50 (HL-60): > 100 µM (inactive)
GI50 (K562): > 100 µM (inactive)
GI50 (ACHN): > 100 µM (inactive)
GI50 (U-251): > 100 µM (inactive)
GI50 (KM12): > 100 µM (inactive)
GI50 (A498): > 100 µM (inactive)
GI50 (EKVX): > 100 µM (inactive)
GI50 (CCRF-CEM): > 100 µM (inactive)
GI50 (HOP-18): > 100 µM (inactive)
GI50 (786-0): > 100 µM (inactive)
GI50 (LOX IMVI): > 100 µM (inactive)
GI50 (A549): > 100 µM (inactive)
GI50 (SN12C): > 100 µM (inactive)
GI50 (SK-MEL-28): > 100 µM (inactive)
GI50 (Malme-3M): > 100 µM (inactive)
GI50 (LXFL 529): > 100 µM (inactive)
GI50 (SF-539): > 100 µM (inactive)
GI50 (HCC 2998): > 100 µM (inactive)
GI50 (NCI-H226): > 100 µM (inactive)
GI50 (NCI-H460): > 100 µM (inactive)

O=c1/c(=C/c2cccc3ccccc23)sc2nc3ccccc3n12
GI50 (UO-31): > 100 µM (inactive)
GI50 (OVCAR-8): > 100 µM (inactive)
GI50 (HCT-15): > 100 µM
GI50 (OVCAR-4): > 100 µM (inactive)
GI50 (SF-295): > 100 µM (inactive)
GI50 (NCI-H522): > 100 µM (inactive)
GI50 (HOP-92): > 100 µM (inactive)
GI50 (RXF 393): > 100 µM (inactive)
GI50 (SNB-75): 71.9 µM (inactive)
GI50 (SK-MEL-5): > 100 µM (inactive)
GI50 (OVCAR-3): > 100 µM (inactive)
GI50 (SK-MEL-2): > 100 µM (inactive)
GI50 (HCT-116): > 100 µM (inactive)
GI50 (SNB-78): > 100 µM (inactive)
GI50 (TK-10): > 100 µM (inactive)
GI50 (UACC-62): > 100 µM (inactive)
GI50 (OVCAR-5): > 100 µM (inactive)
GI50 (DMS-273): > 100 µM (inactive)
GI50 (NCI-H23): > 100 µM (inactive)
GI50 (M19-MEL): > 100 µM (inactive)
GI50 (RXF 631): > 100 µM (inactive)
GI50 (CAKI-1): > 100 µM (inactive)
GI50 (HT-29): > 100 µM (inactive)
GI50 (COLO 205): > 100 µM (inactive)
GI50 (HOP-62): > 100 µM (inactive)
GI50 (DMS-114): > 100 µM (inactive)
GI50 (UACC-257): > 100 µM (inactive)
GI50 (SNB-19): > 100 µM (inactive)
GI50 (IGROV-1): > 100 µM (inactive)
GI50 (SW-620): > 100 µM (inactive)
GI50 (SF-268): > 100 µM (inactive)
GI50 (M14): > 100 µM (inactive)
GI50 (KM-20L2): > 100 µM (inactive)
GI50 (HL-60): > 100 µM (inactive)
GI50 (K562): > 100 µM (inactive)
GI50 (ACHN): > 100 µM (inactive)
GI50 (U-251): > 100 µM (inactive)
GI50 (KM12): > 100 µM (inactive)
GI50 (A498): > 100 µM (inactive)
GI50 (DLD-1): > 100 µM (inactive)
GI50 (EKVX): > 100 µM (inactive)
GI50 (HOP-18): > 100 µM (inactive)
GI50 (786-0): > 100 µM (inactive)
GI50 (LOX IMVI): > 100 µM (inactive)
GI50 (A549): > 100 µM (inactive)
GI50 (SN12C): > 100 µM (inactive)
GI50 (SK-MEL-28): > 100 µM (inactive)
GI50 (Malme-3M): > 100 µM (inactive)
GI50 (LXFL 529): > 100 µM (inactive)
GI50 (SF-539): > 100 µM (inactive)
GI50 (HCC 2998): > 100 µM (inactive)
GI50 (NCI-H226): > 100 µM (inactive)
GI50 (NCI-H460): > 100 µM (inactive)
